Reference: PubChem BioAssay AID463178 (University of Pittsburgh Molecular Library Screening Center, 2010)
The source made the active and inactive calls.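 The calls were made as follows: active = IC50 below a set limit in both duplicate runs and mean IC50 below a set limit; inconclusive = IC50 above a set limit in only one run; inactive = IC50 above a set limit in both runs and mean.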

tested on: Jurkat FADD-/- TNF-alpha necroptosis, CellTiter-Glo ATP, 24 h; experiment: inhibitors of TNF-alpha triggered necroptosis, potency, dose response, cell-based, Jurkat FADD-/-, duplicate IC50 (AID 463178)

| Compound | IC50 |
| --- | --- |
| Cc1ccc(C2CC(=O)NC(SCC(=O)Nc3nccs3)=C2C#N)cc1 (stereo unspecified) | > 20 µM (inactive) |
| CCC(C)c1ccc(O)c(NC(=O)c2cncc(Br)c2)c1 (stereo unspecified) | > 20 µM (inactive) |
| COCCNS(=O)(=O)c1ccc(SC)cc1 | 9.06 µM |
| O=C(CSc1ccc(Cl)cc1)N1N=CCC1c1ccccc1 (stereo unspecified) | 16.4 µM |
| COc1ccc(-n2c(C)nc3sc4c(c3c2=O)CCCC4)cc1 | 13.9 µM |
| O=C1NC(Cc2c[nH]c3ccccc23)C(=O)N1CCOc1ccc(F)cc1 (stereo unspecified) | 10 µM |
| C=C(C)CSc1nnc2n(Cc3ccccc3)c(=O)c3c4c(sc3n12)CCC4 | > 20 µM (inactive) |
| O=C(Nc1ccc(Cl)c(Cl)c1)N1N=CCC1c1ccccc1 (stereo unspecified) | 11.8 µM |
| COc1ccc(C2CN=NC2C(=O)c2ccccc2)cc1 (stereo unspecified) | 16.4 µM |
| O=[N+]([O-])c1ccc(Nc2ccccc2)nc1 | 15.3 µM |
| CC(=O)N(CC1CCCO1)c1nnc(-c2cnccn2)s1 (stereo unspecified) | 5.94 µM |
| COC(C(=O)Nc1ccc(Br)cc1F)c1ccccc1 (stereo unspecified) | 10.7 µM |
| O=C(Nc1ccccc1)N1N=CCC1c1ccccc1 (stereo unspecified) | 1.48 µM |
| O=C(CSc1nnnn1-c1ccccc1)N1N=CCC1c1ccccc1 (stereo unspecified) | 6.27 µM |
| O=[N+]([O-])c1ncn(Cc2c(Cl)cccc2Cl)n1 | 13.1 µM |
| Cc1ccc(CC(=O)Nc2ncc([N+](=O)[O-])s2)cc1 | > 20 µM (inactive) |
| COc1ccc(NC(=O)C(OC)c2ccccc2)cc1Cl (stereo unspecified) | 12 µM |
| Cc1ccc(CN2CCSc3sccc3C2=O)cc1 | 9.28 µM |
| O=C(NCc1c(Cl)cccc1Cl)c1ccc2nnsc2c1 | > 20 µM (inactive) |
| O=C(Nc1cccc(Cl)c1)N1N=CCC1c1ccccc1 (stereo unspecified) | 1.28 µM |
| O=C1NC(=Nc2ccccc2)SC1Cc1cccc(Cl)c1Cl (stereo unspecified) | > 20 µM (inactive) |
| c1ccc(CSc2nnc(-c3ccco3)o2)cc1 | 17.3 µM |
| COc1ccc(-n2cnc3cc(NS(=O)(=O)c4ccccc4)ccc32)cc1 | > 20 µM (inactive) |
| COc1ccc(NC(=S)N2N=CCC2c2ccccc2)cc1 (stereo unspecified) | 12.9 µM |

| Compound | IC50 |
| --- | --- |
| OC(c1ccccc1)c1nc2ccccc2s1 (stereo unspecified) | 14.6 µM |
| COc1ccc(-n2c(C)nn(CC3CC3)c2=O)cc1 | 5.12 µM |
| Cc1csc(SCC(=O)NC(=O)NC2CCCC2)n1 | 12.2 µM |
| O=C(CSCc1ccc([N+](=O)[O-])cc1)NC1CC2CCC1C2 (stereo unspecified) | 13.6 µM |
| Cc1ccc(SCC(=O)N2N=CCC2c2ccccc2)cc1 (stereo unspecified) | 11.8 µM |
| Cc1ccc(Oc2ccccc2/C=C2\SC(=O)N(C)C2=O)cc1 | > 20 µM (inactive) |
| Cc1ccc(NC(=O)C2COc3ccccc3O2)nc1 (stereo unspecified) | 10 µM |
| O=C(Nc1ccc(Cl)cc1)N1N=CCC1c1ccccc1 (stereo unspecified) | 11.6 µM |
| Cc1cnc(NC(=O)C2(c3ccccc3)CC2)s1 | > 20 µM (inactive) |
| CC(=O)Nc1ccc(/C=N/Nc2nc3ccccc3s2)cc1 | > 20 µM (inactive) |
| Clc1cccc(Cl)c1Cn1ccc(C2CC2)n1 | 4.75 µM |
| O=C(Nc1nccs1)c1ccc(S(=O)(=O)N2CCCCC2)cc1 | > 20 µM (inactive) |
| O=C(COc1ccccc1Cl)NC(=O)NC1CCCC1 | 12.6 µM |
| COC(C(=O)Nc1ccc(F)cc1)c1ccccc1 (stereo unspecified) | 2.15 µM |
| Cc1cc([N+](=O)[O-])nn1Cc1ccc(F)cc1 | 7.15 µM |
| COc1ccc(/C=C2\N=C(SC)NC2=O)cc1 | > 20 µM (inactive) |
| Cc1nn(Cc2c(F)cccc2Cl)c(C)c1[N+](=O)[O-] | > 20 µM (inactive) |
| Cc1ccc2[nH]c3c(c2c1)CCc1cn[nH]c1-3 | 1.14 µM |
| Clc1ccc2[nH]c3c(c2c1)CCc1cn[nH]c1-3 | 5.28 µM |
| CC(=O)N(CC1CCCO1)c1nnc(-c2ccccn2)s1 (stereo unspecified) | 9.72 µM |
| Cc1ccc(Cn2cnc3sc4c(c3c2=O)CCC4)c(C)c1 | > 20 µM (inactive) |
| Clc1ccc(C2=NNC(=NCc3ccccc3)SC2)cc1 | > 20 µM (inactive) |
| O=C(CSCc1ccc([N+](=O)[O-])cc1)NC1CCCCCC1 | 10 µM |
| O=S(=O)(c1cccc2cccnc12)N1CCN(c2ccc(F)cc2)CC1 | > 20 µM (inactive) |

| Compound | IC50 |
| --- | --- |
| N#CCSc1nc2sc3c(c2c(=O)n1C1CCCCC1)CCCC3 | > 20 µM (inactive) |
| Cc1csc(Nc2ccc(Cl)cc2)[n+]1-c1ccc(Cl)cc1 | > 20 µM (inactive) |
| Cc1ccc(C(=O)NC(C#N)=C(Cl)Cl)cc1 | > 20 µM (inactive) |
| O=C(Nc1ncc(Cc2ccccc2)s1)C1COc2ccccc2O1 (stereo unspecified) | > 20 µM (inactive) |
| CN(CC1CCCO1)S(=O)(=O)c1ccc(C(=O)Nc2nccs2)cc1 (stereo unspecified) | 12.9 µM |
| CC(=O)Nc1ccn(Cc2c(F)cccc2Cl)n1 | 3.52 µM |
| CC(NC(=O)c1cc(Br)ccc1Cl)c1ccccc1 (stereo unspecified) | > 20 µM (inactive) |
| Cc1nn(Cc2ccccc2)c(N)c1C#N | 9.44 µM |
| COc1ccc(/C=N/Nc2ccccn2)cc1O | 14.8 µM |
| O=C(OC(C(=O)Nc1ccc([N+](=O)[O-])cc1Br)c1ccccc1)c1ccccc1 (stereo unspecified) | > 20 µM (inactive) |
| COC(C(=O)Nc1ccc(F)c(F)c1)c1ccccc1 (stereo unspecified) | 1.52 µM |
| Cc1nc2oc3ccccc3c(=O)c2c(=O)n1Cc1ccccc1 | 14.4 µM |
| Cc1cnc(NC(=O)C2COc3ccccc3O2)s1 (stereo unspecified) | > 20 µM (inactive) |
| COC(C(=O)Nc1ccc(F)cc1F)c1ccccc1 (stereo unspecified) | 0.969 µM |
| CCn1c([N+](=O)[O-])nc2c1c(=O)[nH]c(=O)n2C | > 20 µM (inactive) |
| COC(=O)c1ccn(Cc2ccccc2Cl)n1 | 0.881 µM |
| CN=C(Cc1ccccc1)C1=C(O)CC(C)(C)CC1=O | 4.76 µM |
| O=C1c2ccsc2SCCN1Cc1ccccc1 | 6.07 µM |
| O=[N+]([O-])c1ccc(Nc2ccc(Cl)cc2)nc1 | > 20 µM (inactive) |
| COc1ccc(-c2nc3c(-c4ccccc4)cnn3cc2C)cc1F | > 20 µM (inactive) |
| O=C(CSc1nnc2n1CCCN2C(=S)Nc1ccc(Cl)cc1)c1ccccc1 | > 20 µM (inactive) |
| CC(C)c1ccc(O)c(NC(=O)c2cncc(Br)c2)c1 | > 20 µM (inactive) |
| O=C(NNc1c(Cl)cccc1Cl)C1CCC1 | 9.85 µM |
| COc1ccc(-n2c(C)nc3sc4c(c3c2=O)CCC4)cc1 | 4.17 µM |

| Compound | IC50 |
| --- | --- |
| O=C(CN1CCN(C(c2ccccc2)c2ccccc2)CC1)N1N=CCC1c1ccccc1 (stereo unspecified) | > 20 µM (inactive) |
| COc1ccc(/C=N/Nc2nc3ccccc3s2)cc1O | > 20 µM (inactive) |
| O=C(Cn1cnc2ccc(Br)cc2c1=O)c1cccs1 | > 20 µM (inactive) |
| Cc1cc(N/N=C/c2ccncc2)nc2ccccc12 | > 20 µM (inactive) |
| O=C(C1COc2ccccc2O1)N1CCc2ccccc21 (stereo unspecified) | 5.82 µM |
| c1csc(Cc2nc3ccccc3[nH]2)c1 | 8.85 µM |
| Cc1ccc(C)c(C2=NNC(=NCc3ccccc3)SC2)c1 | 15.2 µM |
| O=C(Nc1ccc(Cl)cn1)C1COc2ccccc2O1 (stereo unspecified) | > 20 µM (inactive) |
| Cc1csc(Nc2ccccc2)[n+]1-c1ccccc1 | > 20 µM (inactive) |
| O=[N+]([O-])c1ncn(Cc2ccccc2Cl)n1 | 2.51 µM |
| O=C(Nc1nccs1)c1cc2c(s1)CCCCC2 | > 20 µM (inactive) |
| COc1ccc(NC(C)c2ccccc2)cc1 (stereo unspecified) | 14.1 µM |
| Cc1nnsc1C(=O)NNc1c(Cl)cccc1Cl | 5.04 µM |
| O=C(Nc1cccc2ccccc12)N1N=CCC1c1ccccc1 (stereo unspecified) | > 20 µM (inactive) |
| CC(=O)N(c1ccccc1)c1nnc(-c2cnc(C)cn2)s1 | 10.6 µM |
| O=S(=O)(Nc1ccccc1)c1ccc2c(c1)CCO2 | 9.75 µM |
| CCn1c(O)c(C=NCc2ccccc2)sc1=S | > 20 µM (inactive) |
| Cc1ccc(NC(=O)CSCc2ccc(F)cc2)cc1 | > 20 µM (inactive) |
| COC(C(=O)Nc1ccc(S(=O)(=O)N2CCCCC2)cc1)c1ccccc1 (stereo unspecified) | > 20 µM (inactive) |
| COc1cc(/C=N/Nc2nc3ccccc3[nH]2)cc(Br)c1OCC(=O)N(C)C | > 20 µM (inactive) |
| O=C(C1=NNCC1c1ccccc1)C1CO1 (stereo unspecified) | 4.94 µM |
| O=[N+]([O-])c1ccc(Nc2ccc(F)cc2)nc1 | 14.6 µM |
| O=C(CSC(=S)N1CCOCC1)N1N=CCC1c1ccccc1 (stereo unspecified) | 9.41 µM |
| COC(C(=O)Nc1cccc(F)c1)c1ccccc1 (stereo unspecified) | 6.43 µM |

| Compound | IC50 |
| --- | --- |
| Brc1ccc(COn2ccnc2)cc1 | 6.31 µM |
| O=C(Cn1cnc2ccc(Cl)cc2c1=O)c1cccs1 | > 20 µM (inactive) |
| CC(Nc1nc(-c2ccc3c(c2)NC(=O)CO3)cs1)c1ccccc1 (stereo unspecified) | > 20 µM (inactive) |
| COC(C(=O)Nc1ccccc1F)c1ccccc1 (stereo unspecified) | 4.25 µM |
| O=[N+]([O-])c1ccc(Nc2cccc(F)c2)nc1 | 19.6 µM |
| C/C(Cl)=C/CN1C(=O)C2C3C=CC(C3)C2C1=O (stereo unspecified) | 6.41 µM |
| O=C(C1=NNCC1c1ccc(Cl)cc1)C1CO1 (stereo unspecified) | 7.86 µM |
| O=C(O)c1ccc(/C=N/Nc2ccc(C(F)(F)F)cn2)cc1 | 6.32 µM |
| Clc1ccc(COn2ccnc2)cc1Cl | 1.97 µM |
| O=C1CC(c2ccccc2)C(=O)N1c1cccc(O)c1 (stereo unspecified) | 12.9 µM |
| S=C(Nc1ccccc1)N1N=CCC1c1ccccc1 (stereo unspecified) | 7.65 µM |
| O=[N+]([O-])c1ccc(Nc2ccccc2F)nc1 | 15.5 µM |
| COc1ccc(/C=N/Nc2ccccn2)cc1OC | > 20 µM (inactive) |
| O=C(c1ccc([N+](=O)[O-])cc1)N1CCSC1c1ccccc1Cl (stereo unspecified) | > 20 µM (inactive) |
| Cc1nnsc1C(=O)NCc1c(F)cccc1Cl | 7.64 µM |
| CC(=O)OC(C(=O)NC1CCCCC1)c1ccc(Cl)c(Cl)c1 (stereo unspecified) | > 20 µM (inactive) |
| Fc1ccc(C2=NNC(=NCc3ccccc3)SC2)cc1F | > 20 µM (inactive) |
| Fc1ccc(NC(=S)N2N=CCC2c2ccccc2)cc1 (stereo unspecified) | 3.38 µM |
| O=C(Cc1c(F)cccc1Cl)Nc1ncc([N+](=O)[O-])s1 | > 20 µM (inactive) |
| c1ccc(C2CC3CC4(CCCC4)N2O3)cc1 (stereo unspecified) | 3.81 µM |
